Assay results from US20230158005A1 (priority 2020, published 2023).
Several values for one entry are separate records, joined by “and”; a condition that tells them apart may be missing. Identical values can stand only once.

Tested on: A/Washington/29/2009 (H1N1) H275Y
Assay type: cell-based, influenza A virus

Compound | DIF (Difference from Control) [log10TCID50/mL] | Virus titer AVG | Virus titer, replicates 1-3
CCOC(=O)C1=C[C@@H](OC(CC)CC)[C@H](NC(C)=O)[C@@H](N)C1 [Oseltamivir, oseltamivir, reference compound] | -0.92 | 3.92 log10TCID50/mL | 3.75 log10TCID50/mL (2×) and 4.25 log10TCID50/mL
CC1=C(COCCC(C)(C)C)C(=O)N(Nc2ccc(C(F)(F)F)c(Cl)n2)C1=O [felezonexor, 3-[(3,3-dimethylbutoxy)methyl]-1-{[6-chloro-5-(trifluoromethyl) (2-pyridyl)]amino}-4-methylazoline-2,5-dione] |  | 2.67 log10TCID50/mL and 3.83 log10TCID50/mL and 4.50 log10TCID50/mL | 2.75 log10TCID50/mL (2×) and 3.50 log10TCID50/mL and 4.50 log10TCID50/mL (3×) and 2.50 log10TCID50/mL and 3.75 log10TCID50/mL and 4.25 log10TCID50/mL
